Results from paper PMC6471591, “Preparation of Sesquiterpene Lactone Derivatives: Cytotoxic Activity and Selectivity of Action” (Molecules, 2019).
Where two headings read alike, the source gives them in different places.

Assays:
A549 cells [1] = assay: Antiproliferative SRB assay (NCI protocol), 48 h; assay type: cell-based; conditions: Homo sapiens, read-out: 50% growth inhibition (GI50) ± SD, A549
Description: (§1) In vitro antiproliferative activity was evaluated using the protocol of the National Cancer Institute (NCI) after 48 h of drug exposure using the sulforhodamine B (SRB) assay. […] We cannot discard that increasing lipophilicity may well result in an increase in cytotoxicity in vitro.
(§2) The following human solid tumor cell lines were used in this study: HBL-100 (breast), HeLa (cervix), SW1573 (non-small cell lung), T-47D (breast), A549 (lung), and WiDr (colon). Cells were maintained in 25 cm^2 culture flasks in RPMI 1640 supplemented with 5% heat-inactivated fetal calf serum and 2 mM L-glutamine in a 37 °C, 5% CO2, 95% humidified air incubator. Exponentially growing cells were trypsinized and resuspended in antibiotic containing medium (100 units penicillin G and 0.1 mg of streptomycin per mL). Single-cell suspensions displaying >97% viability by trypan blue dye exclusion test were subsequently counted. After counting, dilutions were made to give the appropriate cell densities for inoculation onto 96-well microtiter plates. Cells were inoculated in a volume of 100 μL per well at densities of 20,000 (WiDr), 15,000 (T-47D and A549), and 10,000 (HeLa, SW1573, and HBL-100) cells per well, based on their doubling times.
(§3) Chemosensitivity tests were performed using the SRB assay of the NCI with slight modifications. Briefly, pure compounds were initially dissolved in DMSO at 400 times the desired final maximum test concentration. Control cells were exposed to an equivalent concentration of DMSO (0.25% v/v, negative control). Each agent was tested in triplicate at different dilutions in the range 1–100 μM. Drug treatment started on day 1 after plating. Drug incubation periods were 48 h, after which cells were precipitated with 25 μL of ice-cold 50% (w/v) trichloroacetic acid and fixed for 60 min at 4 °C. Then, the SRB assay was performed. Optical density (OD) of each well was measured at 492 nm, using BioTek’s PowerWave XS Absorbance Microplate Reader (Highland Park, Winooski, VT, USA). Values were corrected for background OD from wells containing only culture medium. The percentage growth (PG) was calculated with respect to untreated control cells (C) at each level of drug concentrations based on the difference in OD at the start time (T0) and at the end of drug exposure (T), according to NCI formulas. Therefore, if T is greater than or equal to T0, the calculation is 100 × [(T–T0)/(C–T0)]. If T is lower than T0, denoting cell death, the calculation is 100 × [(T–T0)/(T0)]. The effect is defined as the growth percentage, where 50% growth inhibition (GI50) represents the concentration at which PG is +50. Based on these calculations, a PG value of 0 corresponds to the number of cells present at the beginning of drug exposure, while negative PG values denote net cell death.

HeLa cells [2] = assay: Antiproliferative SRB assay (NCI protocol), 48 h; assay type: cell-based; conditions: Homo sapiens, read-out: 50% growth inhibition (GI50) ± SD, HeLa
Description: as §1, §2, §3

HBL100 cells [3] = assay: Antiproliferative SRB assay (NCI protocol), 48 h; assay type: cell-based; conditions: Homo sapiens, read-out: 50% growth inhibition (GI50) ± SD, HBL100
Description: as §1, §2, §3

A549 cells [4] = assay: Antiproliferative SRB assay (NCI protocol), 48 h; assay type: cell-based, human; conditions: splenocyte CC50 versus A549 GI50
HBL100 cells [5] = assay: Antiproliferative SRB assay (NCI protocol), 48 h; assay type: cell-based, human; conditions: splenocyte CC50 versus HBL100 GI50
HeLa cells [6] = assay: Antiproliferative SRB assay (NCI protocol), 48 h; assay type: cell-based, human; conditions: splenocyte CC50 versus HeLa GI50
SW1573 cells = assay: Antiproliferative SRB assay (NCI protocol), 48 h; assay type: cell-based, human; conditions: for GI50: Homo sapiens, read-out: 50% growth inhibition (GI50) ± SD, SW1573; for Selectivity Index, SW1573: splenocyte CC50 versus SW1573 GI50
Description: as §1, §2, §3

WiDr cells = assay: Antiproliferative SRB assay (NCI protocol), 48 h; assay type: cell-based, human; conditions: for GI50: Homo sapiens, read-out: 50% growth inhibition (GI50) ± SD, WiDr; for Selectivity Index, WiDr: splenocyte CC50 versus WiDr GI50
Description: as §1, §2, §3

T47-D cells = assay: Antiproliferative SRB assay (NCI protocol), 48 h; assay type: cell-based, human; conditions: for GI50: Homo sapiens, T47D, read-out: 50% growth inhibition (GI50) ± SD, T47-D; for Selectivity Index, T47-D: splenocyte CC50 versus T47-D GI50
Description: as §1, §2, §3

[7] = Cytotoxicity on primary cell culture (propidium iodide, flow cytometry); assay type: cell-based
Description: The cytotoxicity of the sesquiterpene lactones and its derivatives was evaluated using mouse splenocytes. […] Cumanin derivatives (4–11) have shown CC50 values and selectivity indexes higher than natural compound 1. […] The incorporation of two triazole groups in cumanin (1) reduced cytotoxicity on normal cells and improved selectivity against tumor cell lines.
In a 96-well plate, spleen cells from Balb/c mouse (1.5 × 10^5) were incubated with different drug dilutions (200, 100, 50, 10, and 5 μg/mL) in RPMI medium containing 10% fetal calf serum. After 48 h of incubation at 37 °C (5% CO2), cells were harvested, washed once with PBS, and stained with 2.5 μg/mL propidium iodide (PI) for 5 min at room temperature. Subsequently, cell death was assessed by flow cytometry using a BD FACSaria II cytometer. Cells incubated only with a drug vehicle were used as a 100% viability control and death percentage was calculated according to the following formula: Death(%)=[1−(%PI^−cells)drug−treated/(%PI^−cells)100% viability control]×100.
Then the concentration capable of causing cell death in 50% of splenocytes (CC50) was determined using a non-linear regression approach.

[8] = A549 (lung), SRB, 48 h drug exposure
[9] = HeLa (cervix), SRB, 48 h drug exposure
[10] = HBL-100, HBL100 (breast), SRB, 48 h drug exposure
[11] = SW1573 (non-small cell lung), SRB, 48 h drug exposure
[12] = WiDr (colon), SRB, 48 h drug exposure
[13] = T47-D (breast), SRB, 48 h drug exposure
[14] = Balb/c mouse spleen cells, 48 h incubation, PI staining, read-out: CC50 ± SD, splenocytes (concentration that causes 50% cell death)

## C=C1C(=O)OC2CC(C)C3CC(O)C(O)C3(C)CC12 (centres unmarked) [Compound 1, cumanin]
A549 cells [1]; [8]
  GI50: 19 µM
HeLa cells [2]; [9]
  GI50: 19 µM
HBL100 cells [3]; [10]
  GI50: 21 µM
A549 cells [4]
  Selectivity Index, A549: 1.5
HBL100 cells [5]
  Selectivity Index, HBL100: 1.4
HeLa cells [6]
  Selectivity Index, HeLa: 1.5
SW1573 cells; [11]
  GI50: 14 µM
SW1573 cells
  Selectivity Index, SW1573: 2.1
WiDr cells; [12]
  GI50: 36 µM
WiDr cells
  Selectivity Index, WiDr: 0.8
T47-D cells; [13]
  GI50: 30 µM
T47-D cells
  Selectivity Index, T47-D: 1.0

## C=C1C(=O)O[C@@H]2C[C@@H](C)[C@@H]3C=CC(=O)[C@@]3(C)[C@@H](O)[C@H]12 [Compound 2, helenalin]
[7]; [14]
  CC50 at 48 h: 1.2 µM
A549 cells [1]; A549, 48 h
  GI50: 2.3 µM
HeLa cells [2]; HeLa, 48 h
  GI50: 1.7 µM
HBL100 cells [3]; HBL-100, 48 h
  GI50: 2.8 µM
A549 cells [4]
  Selectivity Index, A549: 0.5
HBL100 cells [5]
  Selectivity Index, HBL100: 0.4
HeLa cells [6]
  Selectivity Index, HeLa: 0.7
SW1573 cells; SW1573, 48 h
  GI50: 2.2 µM
SW1573 cells
  Selectivity Index, SW1573: 0.5
WiDr cells; WiDr, 48 h
  GI50: 2.7 µM
WiDr cells
  Selectivity Index, WiDr: 0.4
T47-D cells; 48 h
  GI50: 2.9 µM
T47-D cells
  Selectivity Index, T47-D: 0.4

## C=C1C(=O)O[C@@H]2[C@H]1CC[C@H](C)[C@@]1(O)C=CC(=O)[C@@]21C [Compound 3, hymenin]
[7]; Balb/c, mouse
  CC50 at 48 h: 4.4 µM
A549 cells [1]; [8]
  GI50: 9.7 µM
HeLa cells [2]; [9]
  GI50: 14 µM
HBL100 cells [3]; [10]
  GI50: 17 µM
A549 cells [4]
  Selectivity Index, A549: 0.4
HBL100 cells [5]
  Selectivity Index, HBL100: 0.3
HeLa cells [6]
  Selectivity Index, HeLa: 0.3
SW1573 cells; [11]
  GI50: 6.4 µM
SW1573 cells
  Selectivity Index, SW1573: 0.7
WiDr cells; [12]
  GI50: 18 µM
WiDr cells
  Selectivity Index, WiDr: 0.2
T47-D cells; [13]
  GI50: 20 µM
T47-D cells
  Selectivity Index, T47-D: 0.2

## C=C1C(=O)O[C@@H]2C[C@H](C)[C@@H]3C[C@H](O[Si](C)(C)C)[C@H](O[Si](C)(C)C)[C@@]3(C)C[C@H]12 [Compound 5]
A549 cells [1]; [8]
  GI50: 2.4 µM
HeLa cells [2]; [9]
  GI50: 2.9 µM
HBL100 cells [3]; [10]
  GI50: 3.6 µM
A549 cells [4]
  Selectivity Index, A549: 27.7
HBL100 cells [5]
  Selectivity Index, HBL100: 18.4
HeLa cells [6]
  Selectivity Index, HeLa: 22.9
SW1573 cells; [11]
  GI50: 1.8 µM
SW1573 cells
  Selectivity Index, SW1573: 36.9
WiDr cells; [12]
  GI50: 2.2 µM
WiDr cells
  Selectivity Index, WiDr: 30.2
T47-D cells; [13]
  GI50: 1.9 µM
T47-D cells
  Selectivity Index, T47-D: 34.9

## C=C1C(=O)O[C@@H]2C[C@H](C)[C@@H]3C[C@H](O[Si](C)(C)C(C)C)[C@H](O[Si](C)(C)C(C)C)[C@@]3(C)C[C@H]12 [Compound 6]
[7]; Balb/c, mouse
  CC50 at 48 h: 91.8 µM
A549 cells [1]; [8]
  GI50: 1.2 µM
HeLa cells [2]; [9]
  GI50: 1.3 µM
HBL100 cells [3]; [10]
  GI50: 2.3 µM
A549 cells [4]
  Selectivity Index, A549: 76.5
HBL100 cells [5]
  Selectivity Index, HBL100: 39.9
HeLa cells [6]
  Selectivity Index, HeLa: 70.6
SW1573 cells; [11]
  GI50: 1.2 µM
SW1573 cells
  Selectivity Index, SW1573: 76.5
WiDr cells; [12]
  GI50: 2.4 µM
WiDr cells
  Selectivity Index, WiDr: 38.2
T47-D cells; [13]
  GI50: 2.2 µM
T47-D cells
  Selectivity Index, T47-D: 41.7

## C=C1C(=O)O[C@@H]2C[C@H](C)[C@@H]3C[C@H](O[Si](c4ccccc4)(c4ccccc4)C(C)(C)C)[C@H](O)[C@@]3(C)C[C@H]12 [Compound 7]
A549 cells [1]; [8]
  GI50: 1.6 µM
HeLa cells [2]; [9]
  GI50: 2 µM
HBL100 cells [3]; [10]
  GI50: 3.7 µM
A549 cells [4]
  Selectivity Index, A549: 89.2
HBL100 cells [5]
  Selectivity Index, HBL100: 38.6
HeLa cells [6]
  Selectivity Index, HeLa: 71.3
SW1573 cells; [11]
  GI50: 1.5 µM
SW1573 cells
  Selectivity Index, SW1573: 95.1
WiDr cells; [12]
  GI50: 3.1 µM
WiDr cells
  Selectivity Index, WiDr: 46.0
T47-D cells; [13]
  GI50: 3.4 µM
T47-D cells
  Selectivity Index, T47-D: 42.0

## C=C1C(=O)OC2CC(C)C3CC(OCc4cn(Cc5ccccc5)nn4)C(OCc4cn(Cc5ccccc5)nn4)C3(C)CC12 (centres unmarked) [Compound 11]
[7]; primary mouse splenocytes (spleen cells), Balb/c mouse spleen cells, 48 h incubation, PI staining, read-out: CC50 ± SD, splenocytes (concentration that causes 50% cell death)
  CC50 at 48 h: 524 µM
A549 cells [1]; [8]
  GI50: 3.7 µM
HeLa cells [2]; [9]
  GI50: 5.9 µM
HBL100 cells [3]; [10]
  GI50: 6.4 µM
A549 cells [4]
  Selectivity Index, A549: 141.6
HBL100 cells [5]
  Selectivity Index, HBL100: 81.9
HeLa cells [6]
  Selectivity Index, HeLa: 88.8
SW1573 cells; [11]
  GI50: 4.7 µM
SW1573 cells
  Selectivity Index, SW1573: 111.5
WiDr cells; [12]
  GI50: 2.3 µM
WiDr cells
  Selectivity Index, WiDr: 227.9
T47-D cells; [13]
  GI50: 9.7 µM
T47-D cells
  Selectivity Index, T47-D: 54.0

## C=C1C(=O)O[C@@H]2C[C@@H](C)[C@@H]3C=CC(=O)[C@@]3(C)[C@@H](OC(C)=O)[C@H]12 [Compound 12]
[7]; [14]
  CC50: 0.4 µM
HBL100 cells [3]; [10]
  GI50: 3.6 µM
HBL100 cells [5]
  Selectivity Index, HBL100: 0.1
SW1573 cells; [11]
  GI50: 4.7 µM
SW1573 cells
  Selectivity Index, SW1573: 0.1
T47-D cells; [13]
  GI50: 1.6 µM
T47-D cells
  Selectivity Index, T47-D: 0.2
